How the values were obtained:
[1] = according to The Sigma-Aldrich Handbook of Stains, Dyes and Indicators; cited from earlier work
[2] = Solubility / concentration of colorant in toluene; assay type: physicochemical; details: pure colorant

SMILES | maximum solubility of the pure dye in water [1] | solubility in toluene (in words) [2]
CCN(CC)c1ccc(C(=C2C=CC(=[N+](CC)CC)C=C2)c2ccc(S(=O)(=O)[O-])cc2S(=O)(=O)[O-])cc1.[Na+] [Acid Blue 1] | 3,0% | –
O=C1/C(=C2\Nc3ccc(S(=O)(=O)[O-])cc3C2=O)Nc2ccc(S(=O)(=O)[O-])cc21.[Na+].[Na+] [Acid Blue 74] | 0.3% | –
Cl.Cl.Nc1ccc(N=Nc2cccc(N=Nc3ccc(N)cc3N)c2)c(N)c1 [Basic Brown 1] | – | insoluble
CC1(C)Nc2cccc3c(N=Nc4ccc(N=Nc5ccccc5)c5ccccc45)ccc(c23)N1 [Solvent Black 3] | 0.01% | –

Reference: patent EP1321493A1, “Method for enhancing the solubility of a colorant” (DSM N.V., priority 2001, dated 2003)
